For data set [1], the system named is EBOV-GP-pseudotyped virus (pEBOV). As to the kind of experiment: microbe, parasite or virus in culture. The settings on record: for inhibition at 10 µM: Zaire ebolavirus, Vero C1008, read-out: %inh@10 μM (pEBOV); for EC50: Vesicular stomatitis virus, Vero C1008, 24 h, read-out: EC50 (pEBOV).
Data set [2] deals with wild-type Zaire EBOV Mayinga 1976 strain (EBOV May). As to the kind of experiment: microbe, parasite or virus in culture. To be noted: Zaire ebolavirus, Vero C1008, 72 h, read-out: EC50 (EBOV May).
The test system of data set [3] is EBOV-GP-pseudotyped virus (pEBOV).
Data set [4] has as its system VSV-G-pseudotype virus (pVSV-G). Briefly: microbe, parasite or virus in culture. The data set is classed as cell-based. To be noted: Vesicular stomatitis virus, read-out: %inh@10µM (pVSV-G).
Data set [5] relates to wild-type Zaire EBOV Mayinga 1976 strain (EBOV May).

The results in this text go back to PMC11440591 (Journal of Medicinal Chemistry, 2024).

What is called EC50 is the concentration needed to bring the measured effect to its halfway point.

In turn, `O=C(Nc1ccccc1)c1ccc(-c2ccccc2)s1` [compound 2] yielded a CC50 in the data set “in vitro” (chlorocebus sabaeus) greater than 100 µM. In addition, the inhibition at 10 µM in data set [1] was less than 75%.

Compound `O=C(Nc1ccc(Cl)cc1)c1ccc(-c2ccccc2)s1` [compound 3] yielded a CC50 in “in vitro” (chlorocebus sabaeus) greater than 100 µM. The inhibition at 10 µM in data set [1] was less than 75%.

Compound `O=C(Nc1cccc(Cl)c1)c1ccc(-c2ccccc2)s1` [compound 4] came in with a CC50 in the data set “in vitro” (chlorocebus sabaeus) greater than 100 µM. The inhibition at 10 µM in data set [1] is less than 75%. Besides, the EC50 in data set [2] was greater than 100 µM.

As for `O=C(NCCc1ccccc1)c1ccc(-c2ccccc2)s1` [compound 5], the CC50 is 100 µM in “in vitro” (African green monkey) and greater than 100 µM in “in vitro” (chlorocebus sabaeus). In data set [1], the inhibition at 10 µM is less than 75%. In data set [2], the EC50 is greater than 100 µM.

In the data set “in vitro” (chlorocebus sabaeus), `O=C(Nc1ccc(N2CCOCC2)cc1)c1ccc(-c2ccccc2)s1` [compound 6] came in with a CC50 greater than 100 µM. Besides, the inhibition at 10 µM in data set [1] was less than 75%.

As to `O=C(NCCC1CCN(Cc2ccccc2)CC1)c1ccc(-c2ccccc2)s1` [compound 7], the CC50 in “in vitro” (chlorocebus sabaeus) is greater than 100 µM. In data set [1], the inhibition at 10 µM was less than 75%.

In the data set “in vitro” (chlorocebus sabaeus), `O=C(c1ccc(-c2ccccc2)s1)N1CCCC1` [compound 8] returned a CC50 greater than 100 µM. Moreover, in data set [1], the inhibition at 10 µM was less than 75%.

Regarding `O=C(Nc1ccccc1)c1ccc(-c2ccccc2O)s1` [compound 16], the CC50 in “in vitro” (chlorocebus sabaeus) is greater than 100 µM. In addition, the inhibition at 10 µM in data set [1] was -36%.

In “in vitro” (chlorocebus sabaeus), `O=C(Nc1ccc(Cl)cc1)c1ccc(-c2ccccc2O)s1` [compound 17] showed a CC50 greater than 100 µM. In addition, the inhibition at 10 µM in data set [1] was -19%.

With `O=C(Nc1cccc(Cl)c1)c1ccc(-c2ccccc2O)s1` [compound 18], in the data set “in vitro” (chlorocebus sabaeus), the CC50 was greater than 100 µM. The inhibition at 10 µM in data set [1] was -35%.

For `O=C(NCCc1ccccc1)c1ccc(-c2ccccc2O)s1` [compound 19], in “in vitro” (chlorocebus sabaeus), the CC50 was greater than 100 µM. In addition, the inhibition at 10 µM in data set [1] is -22%.

On to `O=C(Nc1ccc(N2CCOCC2)cc1)c1ccc(-c2ccccc2O)s1` [compound 20], for which, in “in vitro” (chlorocebus sabaeus), the CC50 was greater than 100 µM. In addition, in data set [1], the inhibition at 10 µM is -23%.

For the compound `O=C(NCCC1CCN(Cc2ccccc2)CC1)c1ccc(-c2ccccc2O)s1` [compound 21], the CC50 at 24 h in the data set “in vitro” (chlorocebus sabaeus) is 70 µM. Besides, the inhibition at 10 µM in data set [1] is -22%.

With `O=C(c1ccc(-c2ccccc2O)s1)N1CCCC1` [compound 22], in “in vitro” (chlorocebus sabaeus), the CC50 was greater than 200 µM. For the same compound, the inhibition at 10 µM in data set [1] came out at 0%.

In the data set “in vitro” (chlorocebus sabaeus), `O=C(Nc1ccc(Cl)cc1)c1ccc(-c2cccc(O)c2)s1` [compound 24] registered a CC50 greater than 200 µM. Also, in data set [1], the inhibition at 10 µM was found to be 16%.

Consider `O=C(Nc1cccc(Cl)c1)c1ccc(-c2cccc(O)c2)s1` [compound 25], for which, in “in vitro” (chlorocebus sabaeus), the CC50 is greater than 200 µM. The inhibition at 10 µM in data set [1] is -20%.

Compound `O=C(NCCc1ccccc1)c1ccc(-c2cccc(O)c2)s1` [compound 26] showed a CC50 in the data set “in vitro” (chlorocebus sabaeus) greater than 200 µM. For the same compound, in data set [1], the inhibition at 10 µM turned out to be 10%.

`O=C(Nc1ccc(Cl)cc1)c1ccc(-c2ccc(O)cc2)s1` [compound 28] registered a CC50 in the data set “in vitro” (chlorocebus sabaeus) greater than 200 µM. The inhibition at 10 µM in data set [1] is 46%.

In “in vitro” (chlorocebus sabaeus), `O=C(Nc1cccc(Cl)c1)c1ccc(-c2ccc(O)cc2)s1` [compound 29] gave a CC50 greater than 200 µM. Further, in data set [1], the inhibition at 10 µM came to 27%.

On to `O=C(NCCc1ccccc1)c1ccc(-c2ccc(O)cc2)s1` [compound 30], for which the CC50 in the data set “in vitro” (chlorocebus sabaeus) was greater than 200 µM. Besides, in data set [1], the inhibition at 10 µM was -63%.

Regarding `O=C(NCCC1CCN(Cc2ccccc2)CC1)c1ccc(-c2ccc(O)cc2)s1` [compound 31], the CC50 in “in vitro” (chlorocebus sabaeus) was greater than 100 µM. The inhibition at 10 µM in data set [1] came out at 41%.

As for `CC(C)(C)OC(=O)N1CCC(Oc2ccccc2-c2ccc(C(=O)Nc3cccc(Cl)c3)s2)CC1` [compound 34, tert-butyl 4-(2-(5-((3-chlorophenyl)carbamoyl)thiophen-2-yl)phenoxy)piperidine-1-carboxylate], the “antiviral activity against pEBOV (in words)” value (shortened to “antiviral activity”) in data set [3] is reported as “complete loss of activity”. The CC50 in the data set “in vitro” (chlorocebus sabaeus) was greater than 100 µM. Also, in data set [1], the inhibition at 10 µM is -36%.

In the case of `CC(C)(C)OC(=O)N1CCC(Oc2cccc(-c3ccc(C(=O)Nc4ccccc4)s3)c2)CC1` [compound 39, tert-butyl 4-(3-(5-(phenylcarbamoyl)thiophen-2-yl)phenoxy)piperidine-1-carboxylate], the “antiviral activity” value in data set [3] is “complete loss of activity”. In data set [1], the inhibition at 10 µM was 38%.

On to `O=C(c1ccc(-c2ccccc2OC2CCNCC2)s1)N1CCCC1` [compound 52, (5-(2-(Piperidin-4-yloxy)phenyl)thiophen-2-yl)(pyrrolidin-1-yl)methanone], for which the results for the inhibition at 10 µM in data set [4] and in data set [1] were -108% and -116%, respectively. The “antiviral activity” value in data set [3] is “completely inactive”. Also, the CC50 in “in vitro” (chlorocebus sabaeus) is greater than 100 µM.

Consider `O=C(Nc1cccc(Cl)c1)c1ccc(-c2cccc(OC3CCNCC3)c2)s1` [compound 55, N-(3-Chlorophenyl)-5-(3-(piperidin-4-yloxy)phenyl)thiophene-2-carboxamide], for which the inhibition at 10 µM in data set [4] is -4%. Also, in data set [5], the “SI (CC50/EC50)” value was found to be 8.0. In addition, the CC50 at 24 h in the data set “in vitro” (chlorocebus sabaeus) came out at 15 µM. Besides, the EC50 in data set [1] is 7.5 µM; in data set [2], 1.86 µM.

`O=C(NCCc1ccccc1)c1ccc(-c2ccc(OC3CCNCC3)cc2)s1` [compound 60, N-Phenethyl-5-(4-(piperidin-4-yloxy)phenyl)thiophene-2-carboxamide]: the inhibition at 10 µM in data set [4] is -12%; in data set [1], -8%. Also, the “antiviral activity” value in data set [3] is “completely inactive”. The compound also yielded a CC50 at 24 h in “in vitro” (chlorocebus sabaeus) of 10 µM.

As for `O=C(NCCC1CCN(Cc2ccccc2)CC1)c1ccc(-c2ccc(OC3CCNCC3)cc2)s1` [compound 63, N-(2-(1-Benzylpiperidin-4-yl)ethyl)-5-(4-(piperidin-4-yloxy)phenyl)thiophene-2-carboxamide], the inhibition at 10 µM in data set [4] was 12%; in data set [1], 58%. Besides, the “antiviral activity” value in data set [3] was “completely inactive”. This compound also gave a CC50 in “in vitro” (chlorocebus sabaeus) greater than 100 µM.

In the case of `O=C(Nc1ccccc1)c1ccc(-c2ccccc2OC2CCN(Cc3ccccc3)CC2)s1` [compound 64], the “antiviral activity” value in data set [3] is given as “lacked activity”. This compound showed a CC50 in the data set “in vitro” (chlorocebus sabaeus) greater than 200 µM. In addition, the inhibition at 10 µM in data set [1] was 27%.

Regarding `O=C(Nc1ccccc1)c1cnc(-c2ccc(OC3CCNCC3)cc2)s1` [compound 78, N-Phenyl-2-(4-(piperidin-4-yloxy)phenyl)thiazole-5-carboxamide], the figures for the inhibition at 10 µM in data set [4] and in data set [1] were -32% and -96%, respectively. The compound further returned a CC50 at 24 h in “in vitro” (chlorocebus sabaeus) of 50 µM.

Regarding `O=C(Nc1ccccc1)c1cnc(-c2cccc(OC3CCNCC3)c2)s1` [compound 98, N-Phenyl-2-(3-(piperidin-4-yloxy)phenyl)thiazole-5-carboxamide], the inhibition at 10 µM in data set [4] was -18%; in data set [1], -8%.

For `O=C(Nc1ccccc1)c1ccc(-c2ccccc2OC2CCNCC2)o1` [compound 100, N-Phenyl-5-(2-(piperidin-4-yloxy)phenyl)furan-2-carboxamide], in data set [4], the inhibition at 10 µM was found to be 32%. Also, the “SI (CC50/EC50)” value in data set [3] is 3.8. The CC50 at 24 h in “in vitro” (chlorocebus sabaeus) stood at 79 µM. Moreover, the EC50 in data set [1] amounted to 20.7 µM.
